Data taken from US20260070945A1, “MACROCYCLIC IMMUNOMODULATORS” (Bristol-Myers Squibb Company, priority 2022, published 2026).
*1 amine or outer side, *2 acyl side, *3 side chain or, on linkers, in order; H or OH if unused. Where a SMILES comes first, the peptide text is derived from it. Bridges are numbered along the chain shown (N, C = ends). [ ]: non-standard residue; d: D form. The star is where a group is joined. Phe(4-COOH) = N[C@@H](Cc1ccc(C(=O)O)cc1)C(=O)O; Tyr(3-Cl) = N[C@@H](Cc1ccc(O)c(Cl)c1)C(=O)O; Bip = N[C@@H](Cc1ccc(-c2ccccc2)cc1)C(=O)O; Phe(3-Cl) = N[C@@H](Cc1cccc(Cl)c1)C(=O)O; Phe(4-CN) = N#Cc1ccc(C[C@H](N)C(=O)O)cc1; Phe(3-Me) = Cc1cccc(C[C@H](N)C(=O)O)c1; Phe(4-Me) = Cc1ccc(C[C@H](N)C(=O)O)cc1; Phe(2-Me) = Cc1ccccc1C[C@H](N)C(=O)O; X2 = CC(C)=C[C@H](N[*:1])C(=O)[*:2]; Val(3-OH) = CC(C)(O)[C@H](N)C(=O)O; 2Thi = N[C@@H](Cc1cccs1)C(=O)O; Aad = N[C@@H](CCCC(=O)O)C(=O)O; Cha = N[C@@H](CC1CCCCC1)C(=O)O; Gly(cPr) = N[C@H](C(=O)O)C1CC1; Chg = N[C@H](C(=O)O)C1CCCCC1; Phg = N[C@H](C(=O)O)c1ccccc1; Carboxymethyl = O=C(O)C*; NMeA = CN[C@@H](C)C(=O)O; Aun = NCCCCCCCCCCC(=O)O; Dab = NCC[C@H](N)C(=O)O

The compounds below were run against T1, PD-1/PD-L1 interaction (PE-labeled human PD-L1-Ig binding to Jurkat cell line over-expressing human PD-1) (Homo sapiens, UniProt Q15116) (assay: Jurkat-PD-1 Cell Binding High-Content Screening Assay (CBA)). Settings: Jurkat-hPD-1 cells, PE-labeled PD-L1-Ig 20 nM final; read-out: Jurkat HPD1 PDL1 IC50.
T1 construct: expressed in transfected cells; host or cells: Jurkat
T1 sequence (Q15116 25-288): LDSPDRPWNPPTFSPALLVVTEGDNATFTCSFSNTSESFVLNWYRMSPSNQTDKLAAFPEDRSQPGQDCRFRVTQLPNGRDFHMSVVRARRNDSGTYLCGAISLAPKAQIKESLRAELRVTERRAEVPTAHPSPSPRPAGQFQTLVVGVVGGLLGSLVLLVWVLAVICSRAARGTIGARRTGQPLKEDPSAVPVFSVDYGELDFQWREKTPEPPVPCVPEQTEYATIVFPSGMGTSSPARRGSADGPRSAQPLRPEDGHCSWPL
Outline: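 Cells 8×10^3/well, DMEM + 10% FCS; cpd 2 h, 37 °C; PE–PD-L1-Ig 20 nM final, 1 h; PFA fix + Hoechst 33342, 3× dPBS wash; high-content imager.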

Row | Compound | IC50 [nM]
1 | COc1ccc(C[C@@H]2NC(=O)[C@H](Cc3cccc(C)c3)NC(=O)[C@H](CC(=O)O)NC(=O)[C@H](Cc3ccc(C(=O)O)cc3)NC(=O)[C@H](CCN)NC(=O)CSC[C@@H](C(=O)N[C@@H](CCN)C(=O)NCCCCCCCCCCC(=O)O)NC(=O)[C@H](CO)NC(=O)[C@H](C(C)(C)O)NC(=O)[C@H](CC3CCCCC3)NC(=O)[C@H](CCN)NC(=O)[C@@H](CC(C)C)NC(=O)[C@H](C)N(C)C(=O)[C@H](Cc3ccc(OCC(=O)O)cc3)NC(=O)[C@H](Cc3ccc(-c4ccccc4)cc3)NC2=O)cc1 [Example 1291] ({CH2CO}-[Dab][Phe(4-COOH)]D[Phe(3-Me)]Y(Me)[Bip]Y(Carboxymethyl)[NMeA][dL][Dab][Cha][Val(3-OH)]SC[Dab][Aun]-OH; thioether N-14) | 22.7
2 | Cc1cccc(C[C@@H]2NC(=O)[C@H](CC(=O)O)NC(=O)[C@H](Cc3ccc(C(=O)O)cc3)NC(=O)[C@H](CCN)NC(=O)CSC[C@@H](C(=O)N[C@@H](CCN)C(=O)NCCCCCCCCCCC(=O)O)NC(=O)[C@H](CO)NC(=O)[C@H](C(C)(C)O)NC(=O)[C@H](CC3CCCCC3)NC(=O)[C@H](CCN)NC(=O)[C@@H](CC(C)C)NC(=O)[C@H](C)N(C)C(=O)[C@H](Cc3ccc(OCC(=O)O)cc3)NC(=O)[C@H](Cc3ccc(-c4ccccc4)cc3)NC(=O)[C@H](c3ccccc3)NC2=O)c1 [Example 1292] ({CH2CO}-[Dab][Phe(4-COOH)]D[Phe(3-Me)][Phg][Bip]Y(Carboxymethyl)[NMeA][dL][Dab][Cha][Val(3-OH)]SC[Dab][Aun]-OH; thioether N-14) | 96.9
3 | Cc1cccc(C[C@@H]2NC(=O)[C@H](CC(=O)O)NC(=O)[C@H](Cc3ccc(C(=O)O)cc3)NC(=O)[C@H](CCN)NC(=O)CSC[C@@H](C(=O)N[C@@H](CCN)C(=O)NCCCCCCCCCCC(=O)O)NC(=O)[C@H](CO)NC(=O)[C@H](C(C)(C)O)NC(=O)[C@H](CC3CCCCC3)NC(=O)[C@H](CCN)NC(=O)[C@@H](CC(C)C)NC(=O)[C@H](C)N(C)C(=O)[C@H](Cc3ccc(OCC(=O)O)cc3)NC(=O)[C@H](Cc3ccc(-c4ccccc4)cc3)NC(=O)[C@H](Cc3ccc(O)c(Cl)c3)NC2=O)c1 [Example 1293] ({CH2CO}-[Dab][Phe(4-COOH)]D[Phe(3-Me)][Tyr(3-Cl)][Bip]Y(Carboxymethyl)[NMeA][dL][Dab][Cha][Val(3-OH)]SC[Dab][Aun]-OH; thioether N-14) | 35.8
4 | Cc1cccc(C[C@@H]2NC(=O)[C@H](CC(=O)O)NC(=O)[C@H](Cc3ccc(C(=O)O)cc3)NC(=O)[C@H](CCN)NC(=O)CSC[C@@H](C(=O)N[C@@H](CCN)C(=O)NCCCCCCCCCCC(=O)O)NC(=O)[C@H](CO)NC(=O)[C@H](C(C)(C)O)NC(=O)[C@H](CC3CCCCC3)NC(=O)[C@H](CCN)NC(=O)[C@@H](CC(C)C)NC(=O)[C@H](C)N(C)C(=O)[C@H](Cc3ccc(OCC(=O)O)cc3)NC(=O)[C@H](Cc3ccc(-c4ccccc4)cc3)NC(=O)[C@H](Cc3cccs3)NC2=O)c1 [Example 1294] ({CH2CO}-[Dab][Phe(4-COOH)]D[Phe(3-Me)][2Thi][Bip]Y(Carboxymethyl)[NMeA][dL][Dab][Cha][Val(3-OH)]SC[Dab][Aun]-OH; thioether N-14) | 11.6
5 | Cc1cccc(C[C@@H]2NC(=O)[C@H](CC(=O)O)NC(=O)[C@H](Cc3ccc(C(=O)O)cc3)NC(=O)[C@H](CCN)NC(=O)CSC[C@@H](C(=O)N[C@@H](CCN)C(=O)NCCCCCCCCCCC(=O)O)NC(=O)[C@H](CO)NC(=O)[C@H](C(C)(C)O)NC(=O)[C@H](CC3CCCCC3)NC(=O)[C@H](CCN)NC(=O)[C@@H](CC(C)C)NC(=O)[C@H](C)N(C)C(=O)[C@H](Cc3ccc(OCC(=O)O)cc3)NC(=O)[C@H](Cc3ccc(-c4ccccc4)cc3)NC(=O)[C@H](C3CC3)NC2=O)c1 [Example 1295] ({CH2CO}-[Dab][Phe(4-COOH)]D[Phe(3-Me)][Gly(cPr)][Bip]Y(Carboxymethyl)[NMeA][dL][Dab][Cha][Val(3-OH)]SC[Dab][Aun]-OH; thioether N-14) | 11.2
6 | Cc1cccc(C[C@@H]2NC(=O)[C@H](CC(=O)O)NC(=O)[C@H](Cc3ccc(C(=O)O)cc3)NC(=O)[C@H](CCN)NC(=O)CSC[C@@H](C(=O)N[C@@H](CCN)C(=O)NCCCCCCCCCCC(=O)O)NC(=O)[C@H](CO)NC(=O)[C@H](C(C)(C)O)NC(=O)[C@H](CC3CCCCC3)NC(=O)[C@H](CCN)NC(=O)[C@@H](CC(C)C)NC(=O)[C@H](C)N(C)C(=O)[C@H](Cc3ccc(OCC(=O)O)cc3)NC(=O)[C@H](Cc3ccc(-c4ccccc4)cc3)NC(=O)[C@H](Cc3ccccc3C)NC2=O)c1 [Example 1296] ({CH2CO}-[Dab][Phe(4-COOH)]D[Phe(3-Me)][Phe(2-Me)][Bip]Y(Carboxymethyl)[NMeA][dL][Dab][Cha][Val(3-OH)]SC[Dab][Aun]-OH; thioether N-14) | 48.7
7 | Cc1cccc(C[C@@H]2NC(=O)[C@H](CC(=O)O)NC(=O)[C@H](Cc3ccc(C(=O)O)cc3)NC(=O)[C@H](CCN)NC(=O)CSC[C@@H](C(=O)N[C@@H](CCN)C(=O)NCCCCCCCCCCC(=O)O)NC(=O)[C@H](CO)NC(=O)[C@H](C(C)(C)O)NC(=O)[C@H](CC3CCCCC3)NC(=O)[C@H](CCN)NC(=O)[C@@H](CC(C)C)NC(=O)[C@H](C)N(C)C(=O)[C@H](Cc3ccc(OCC(=O)O)cc3)NC(=O)[C@H](Cc3ccc(-c4ccccc4)cc3)NC(=O)[C@H](Cc3cccc(Cl)c3)NC2=O)c1 [Example 1297] ({CH2CO}-[Dab][Phe(4-COOH)]D[Phe(3-Me)][Phe(3-Cl)][Bip]Y(Carboxymethyl)[NMeA][dL][Dab][Cha][Val(3-OH)]SC[Dab][Aun]-OH; thioether N-14) | 33.3
8 | Cc1cccc(C[C@@H]2NC(=O)[C@H](CC(=O)O)NC(=O)[C@H](Cc3ccc(C(=O)O)cc3)NC(=O)[C@H](CCN)NC(=O)CSC[C@@H](C(=O)N[C@@H](CCN)C(=O)NCCCCCCCCCCC(=O)O)NC(=O)[C@H](CO)NC(=O)[C@H](C(C)(C)O)NC(=O)[C@H](CC3CCCCC3)NC(=O)[C@H](CCN)NC(=O)[C@@H](CC(C)C)NC(=O)[C@H](C)N(C)C(=O)[C@H](Cc3ccc(OCC(=O)O)cc3)NC(=O)[C@H](Cc3ccc(-c4ccccc4)cc3)NC(=O)[C@H](CCCC(=O)O)NC2=O)c1 [Example 1298] ({CH2CO}-[Dab][Phe(4-COOH)]D[Phe(3-Me)][Aad][Bip]Y(Carboxymethyl)[NMeA][dL][Dab][Cha][Val(3-OH)]SC[Dab][Aun]-OH; thioether N-14) | 16.4
9 | CC[C@H](C)[C@@H]1NC(=O)[C@H](Cc2cccc(C)c2)NC(=O)[C@H](CC(=O)O)NC(=O)[C@H](Cc2ccc(C(=O)O)cc2)NC(=O)[C@H](CCN)NC(=O)CSC[C@@H](C(=O)N[C@@H](CCN)C(=O)NCCCCCCCCCCC(=O)O)NC(=O)[C@H](CO)NC(=O)[C@H](C(C)(C)O)NC(=O)[C@H](CC2CCCCC2)NC(=O)[C@H](CCN)NC(=O)[C@@H](CC(C)C)NC(=O)[C@H](C)N(C)C(=O)[C@H](Cc2ccc(OCC(=O)O)cc2)NC(=O)[C@H](Cc2ccc(-c3ccccc3)cc2)NC1=O [Example 1299] ({CH2CO}-[Dab][Phe(4-COOH)]D[Phe(3-Me)]I[Bip]Y(Carboxymethyl)[NMeA][dL][Dab][Cha][Val(3-OH)]SC[Dab][Aun]-OH; thioether N-14) | 11.6
10 | Cc1cccc(C[C@@H]2NC(=O)[C@H](CC(=O)O)NC(=O)[C@H](Cc3ccc(C(=O)O)cc3)NC(=O)[C@H](CCN)NC(=O)CSC[C@@H](C(=O)N[C@@H](CCN)C(=O)NCCCCCCCCCCC(=O)O)NC(=O)[C@H](CO)NC(=O)[C@H](C(C)(C)O)NC(=O)[C@H](CC3CCCCC3)NC(=O)[C@H](CCN)NC(=O)[C@@H](CC(C)C)NC(=O)[C@H](C)N(C)C(=O)[C@H](Cc3ccc(OCC(=O)O)cc3)NC(=O)[C@H](Cc3ccc(-c4ccccc4)cc3)NC(=O)[C@H](Cc3ccc(C#N)cc3)NC2=O)c1 [Example 1300] ({CH2CO}-[Dab][Phe(4-COOH)]D[Phe(3-Me)][Phe(4-CN)][Bip]Y(Carboxymethyl)[NMeA][dL][Dab][Cha][Val(3-OH)]SC[Dab][Aun]-OH; thioether N-14) | 21.5
11 | Cc1ccc(C[C@@H]2NC(=O)[C@H](Cc3cccc(C)c3)NC(=O)[C@H](CC(=O)O)NC(=O)[C@H](Cc3ccc(C(=O)O)cc3)NC(=O)[C@H](CCN)NC(=O)CSC[C@@H](C(=O)N[C@@H](CCN)C(=O)NCCCCCCCCCCC(=O)O)NC(=O)[C@H](CO)NC(=O)[C@H](C(C)(C)O)NC(=O)[C@H](CC3CCCCC3)NC(=O)[C@H](CCN)NC(=O)[C@@H](CC(C)C)NC(=O)[C@H](C)N(C)C(=O)[C@H](Cc3ccc(OCC(=O)O)cc3)NC(=O)[C@H](Cc3ccc(-c4ccccc4)cc3)NC2=O)cc1 [Example 1301] ({CH2CO}-[Dab][Phe(4-COOH)]D[Phe(3-Me)][Phe(4-Me)][Bip]Y(Carboxymethyl)[NMeA][dL][Dab][Cha][Val(3-OH)]SC[Dab][Aun]-OH; thioether N-14) | 26.9
12 | Cc1cccc(C[C@@H]2NC(=O)[C@H](CC(=O)O)NC(=O)[C@H](Cc3ccc(C(=O)O)cc3)NC(=O)[C@H](CCN)NC(=O)CSC[C@@H](C(=O)N[C@@H](CCN)C(=O)NCCCCCCCCCCC(=O)O)NC(=O)[C@H](CO)NC(=O)[C@H](C(C)(C)O)NC(=O)[C@H](CC3CCCCC3)NC(=O)[C@H](CCN)NC(=O)[C@@H](CC(C)C)NC(=O)[C@H](C)N(C)C(=O)[C@H](Cc3ccc(OCC(=O)O)cc3)NC(=O)[C@H](Cc3ccc(-c4ccccc4)cc3)NC(=O)[C@H](C3CCCCC3)NC2=O)c1 [Example 1302] ({CH2CO}-[Dab][Phe(4-COOH)]D[Phe(3-Me)][Chg][Bip]Y(Carboxymethyl)[NMeA][dL][Dab][Cha][Val(3-OH)]SC[Dab][Aun]-OH; thioether N-14) | 17.6
13 | CC(C)=C[C@@H]1NC(=O)[C@H](Cc2cccc(C)c2)NC(=O)[C@H](CC(=O)O)NC(=O)[C@H](Cc2ccc(C(=O)O)cc2)NC(=O)[C@H](CCN)NC(=O)CSC[C@@H](C(=O)N[C@@H](CCN)C(=O)NCCCCCCCCCCC(=O)O)NC(=O)[C@H](CO)NC(=O)[C@H](C(C)(C)O)NC(=O)[C@H](CC2CCCCC2)NC(=O)[C@H](CCN)NC(=O)[C@@H](CC(C)C)NC(=O)[C@H](C)N(C)C(=O)[C@H](Cc2ccc(OCC(=O)O)cc2)NC(=O)[C@H](Cc2ccc(-c3ccccc3)cc2)NC1=O [Example 1303] ({CH2CO}-[Dab][Phe(4-COOH)]D[Phe(3-Me)][X2][Bip]Y(Carboxymethyl)[NMeA][dL][Dab][Cha][Val(3-OH)]SC[Dab][Aun]-OH; thioether N-14) | 26.7
